Assay results published in patent publication US20030181354A1, “Method for central nervous system targeting through the ocular route of drug delivery” (priority 2002, published 2003).

Tests used:
[1] = system: memory; conditions: very small doses, monkeys; cited from earlier work
[2] = reported; cited from earlier work
[3] = Method: A study was conducted to examine for the first time the neuro-ocular tissue distribution of brimonidine following one single 50 μl instillation of 3H-Alphagan aqueous solution (0.2%) into the albino rabbit eye. Both eyes and the brain were dissected. Both side specimens of aqueous humor, cornea, iris, lens, vitreous, conjunctiva, sclera, ciliary body, choroid, retina, optic nerve, optic tract, olfactory bulb, as well as corpus callosum and blood samples were collected. The corpus callosum was chosen as an indicator of general availability of the drug in the brain. The olfactory bulbs were included to rule out ocular-brain drug delivery through the nasal cavity.
In the method employed, following single instillation of 50 μl of [3H]-radio labeled brimonidine tartrate in the cul-de-sac of the right eye, male albino rabbits (2-2.5 kg) were sacrificed at the selected time point (15, 30 min., 1, 2. 3, and 4 h). Both eyes and the brain were dissected. Both sides specimens of aqueous humor, cornea, iris, lens, vitreous, conjunctiva, sclera, ciliary body, choroid, retina, optic nerve, optic tract, as well as chiasm, cerebral and blood samples were weighted before combustion in Packard sample Oxidizer (model 307), and radioactive [3H] brimonidine liquid scintillation counting.

[4] = system: alpha 2-adrenoceptor regulated serotonin release; conditions: rat hippocampus in vivo; cited from earlier work
[5] = system: migraine related symptoms; conditions: 0.2% topical to the eye, as additional antiglaucoma agent
Description: A patient with a history of migraine, and both eyes primary open angle glaucoma.
A patient with a history of migraine, and right eye primary open angle glaucoma.

Brc1c(NC2=NCCN2)ccc2nccnc12 [brimonidine, 5-bromo-6-(2-imidozolin-2-ylamino) quinoxaline]
effect on memory [1]: reliable but modest improvement of memory | systemic half life [2]: 3 h | contralateral eye choroid peak higher than in the blood ([3]; 15 min, P<0.001): 99.5 folds | contralateral eye ciliary body peak higher than in the blood ([3]; 15 min, P<0.001): 76.5 folds | corpus callosum AUC higher than in the left optic nerve ([3]; P<0.01): 118% | corpus callosum AUC higher than in the right optic nerve ([3]; P<0.01): 177% | corpus callosum AUC higher than in the right optic tract ([3]; P<0.05): 123% | corpus callosum AUC higher than in the left optic tract ([3]; P<0.10): 111% | corpus callosum 3H-brimonidine concentration ([3]; at 5 min): 993.79 ± 48.43 ng/g | corpus callosum concentration higher than in the right optic nerve ([3]; at 5 min, P<0.001): 763% | brimonidine concentration in the corpus callosum higher than in the blood ([3]; at 5 minutes, P<0.001): 148 folds | drug concentration detected in the blood samples ([3]; blood, after ocular instillation): extremely low | time of brimonidine delivery to the ciliary body of the contralateral eye ([3]; contralateral eye): < 5 min | ciliary body brimonidine level ([3]; contralateral eye, 5 minutes post drug application): 444.28 ± 86.38 ng/g | ciliary body brimonidine level, peak ([3]; contralateral eye, 15 minutes): 619.74 ± 36.35 ng/g | ciliary body AUC higher than in the conjunctiva ([3]; contralateral eye, P<0.001): 340% | ciliary body AUC higher than in the retina ([3]; contralateral eye, P<0.001): 322% | choroid AUC higher than in the conjunctiva ([3]; contralateral eye, P<0.01): 290% | choroid AUC higher than in the retina ([3]; contralateral eye, P<0.01): 275% | drug levels observed in the olfactory bulbs ([3]; olfactory bulbs): low | Vitreal AUC as % of aqueous humor AUC ([3]; treated eye, P<0.01): 8.85% | Choroidal brimonidine AUC higher than retinal AUC ([3]; treated eye, p<0.001): 196% | Retinal AUC higher than vitreous AUC ([3]; treated eye, p<0.001): 636% | Vitreal AUC as % of retinal AUC ([3]; treated eye, p<0.001): 15.7% | brimonidine AUC corpus callosum higher than blood ([3]; whole study period, P<0.001): 40 folds | effect on release of serotonin (5-HT) [4]: inhibitory action

tartrate of 5-bromo-6-(2-imidozolin-2-ylamino) quinoxaline [brimonidine tartrate]
patient-reported effect on migraine related symptoms [5]: substantial relief of migraine related symptoms
